Measurements as given in ChEMBL document CHEMBL6121046, “Discovery of Novel Hydrazide-Based HDAC3 Inhibitors as Epigenetic Immunomodulators for Cancer Immunotherapy” (J Med Chem, 2025).
Calls of active or inactive are those of the source. No cut-off for these calls is given here.

Tests used:
[1] = test system: MC-38; experiment: Induction of apoptosis in mouse MC38 cells assessed as viable cells at 1 uM measured after 48 hrs by FITC/PI staining based flow cytometry (reference value: 82.07%); format: functional; conditions: read-out: Activity
[2] = target: T1, Histone deacetylase 8 (Homo sapiens, UniProt Q9BY41); experiment: Inhibition of human recombinant HDAC8 pre-incubated with compounds for 10 mins measured followed by 60 mins of substrate addition
T1 sequence (Q9BY41 whole entry): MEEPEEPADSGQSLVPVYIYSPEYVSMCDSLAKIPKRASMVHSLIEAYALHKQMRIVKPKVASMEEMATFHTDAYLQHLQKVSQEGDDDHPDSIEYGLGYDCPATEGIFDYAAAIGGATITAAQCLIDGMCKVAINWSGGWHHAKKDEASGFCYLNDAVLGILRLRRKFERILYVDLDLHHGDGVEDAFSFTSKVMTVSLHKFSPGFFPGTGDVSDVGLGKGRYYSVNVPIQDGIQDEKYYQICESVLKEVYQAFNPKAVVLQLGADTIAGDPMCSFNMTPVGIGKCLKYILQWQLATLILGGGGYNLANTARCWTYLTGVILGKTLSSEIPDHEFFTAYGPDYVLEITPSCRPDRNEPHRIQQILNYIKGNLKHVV

[3] = test system: B16-F10; experiment: Antiproliferative activity against mouse B16-F10 cells at 1 uM measured after 48 hrs incubation by MTT assay relative to control
[4] = test system: MC-38; experiment: Induction of apoptosis in mouse MC38 cells assessed as late apoptotic cells at 8 uM measured after 48 hrs by FITC/PI staining based flow cytometry (reference value: 5.07%); format: functional
[5] = Antiproliferative activity against […] cells measured after 48 hrs incubation by MTT assay relative to control; format: functional, cell-based; conditions: Mus musculus, Lung cancer cell line
[6] = test system: MC-38; experiment: Induction of apoptosis in mouse MC38 cells assessed as necrotic cells at 4 uM measured after 48 hrs by FITC/PI staining based flow cytometry (reference value: 0.56%); format: functional
[7] = test system: MC-38; experiment: Induction of apoptosis in mouse MC38 cells assessed as early apoptotic cells at 8 uM measured after 48 hrs by FITC/PI staining based flow cytometry (Rvb =12.27%); format: functional
[8] = test system: HCT-116; experiment: Antiproliferative activity against human HCT-116 cells measured after 48 hrs incubation by MTT assay relative to control; format: functional, cell-based; conditions: HCT-116, 48 h
[9] = test system: MC-38; experiment: Antiproliferative activity against mouse MC38 cells measured after 48 hrs incubation by MTT assay relative to control; format: functional, cell-based; conditions: MC-38, 48 h
[10] = target: Histone deacetylase 3 (Homo sapiens, UniProt O15379); experiment: Inhibition of human recombinant HDAC3 pre-incubated with compounds for 10 mins measured followed by 60 mins of substrate addition
Sequence of Histone deacetylase 3 (O15379 whole entry): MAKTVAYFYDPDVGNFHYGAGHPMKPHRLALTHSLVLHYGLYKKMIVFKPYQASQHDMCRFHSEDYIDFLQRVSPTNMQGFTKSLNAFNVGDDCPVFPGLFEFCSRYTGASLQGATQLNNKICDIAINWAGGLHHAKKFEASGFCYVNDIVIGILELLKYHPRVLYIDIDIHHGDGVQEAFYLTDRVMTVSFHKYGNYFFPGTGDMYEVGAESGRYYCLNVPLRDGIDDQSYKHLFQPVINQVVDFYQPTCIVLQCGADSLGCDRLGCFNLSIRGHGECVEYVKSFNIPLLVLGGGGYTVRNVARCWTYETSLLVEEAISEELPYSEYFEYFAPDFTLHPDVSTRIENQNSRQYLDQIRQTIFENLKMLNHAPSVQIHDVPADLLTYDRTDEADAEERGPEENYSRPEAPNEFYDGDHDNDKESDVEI

[11] = test system: MC-38; experiment: Induction of apoptosis in mouse MC38 cells assessed as early apoptotic cells at 4 uM measured after 48 hrs by FITC/PI staining based flow cytometry (Rvb =12.27%); format: functional
[12] = test system: HepG2; experiment: Antiproliferative activity against human HepG2 cells measured after 48 hrs incubation by MTT assay relative to control; format: functional, cell-based; conditions: HepG2, 48 h
[13] = test system: MC-38; experiment: Effect on acetylated SMC3 in mouse MC38 cells at 0.1 to 2 uM measured after 24 hrs incubation by Western blot analysis; format: functional, cell-based; conditions: dose 0.1-2 µM
[14] = test system: MC-38; experiment: Cell cycle arrest in mouse MC38 cells assessed as decrease in accumulation of cells at G0/G1 phase measured after 48 hrs by flow cytometry; format: functional, cell-based; conditions: dose 1-8 µM
[15] = test system: MC-38; experiment: Induction of apoptosis in mouse MC38 cells assessed as viable cells at 8 uM measured after 48 hrs by FITC/PI staining based flow cytometry (reference value: 82.07%); format: functional; conditions: read-out: Activity
[16] = test system: B16-F10 (Mus musculus); experiment: Antiproliferative activity against mouse B16-F10 cells measured after 48 hrs incubation by MTT assay relative to control; conditions: B16-F10, 48 h
[17] = target: Histone deacetylase 1 (Homo sapiens, UniProt Q13547); experiment: Inhibition of human recombinant HDAC1 pre-incubated with compounds for 10 mins measured followed by 60 mins of substrate addition
Sequence of Histone deacetylase 1 (Q13547 whole entry): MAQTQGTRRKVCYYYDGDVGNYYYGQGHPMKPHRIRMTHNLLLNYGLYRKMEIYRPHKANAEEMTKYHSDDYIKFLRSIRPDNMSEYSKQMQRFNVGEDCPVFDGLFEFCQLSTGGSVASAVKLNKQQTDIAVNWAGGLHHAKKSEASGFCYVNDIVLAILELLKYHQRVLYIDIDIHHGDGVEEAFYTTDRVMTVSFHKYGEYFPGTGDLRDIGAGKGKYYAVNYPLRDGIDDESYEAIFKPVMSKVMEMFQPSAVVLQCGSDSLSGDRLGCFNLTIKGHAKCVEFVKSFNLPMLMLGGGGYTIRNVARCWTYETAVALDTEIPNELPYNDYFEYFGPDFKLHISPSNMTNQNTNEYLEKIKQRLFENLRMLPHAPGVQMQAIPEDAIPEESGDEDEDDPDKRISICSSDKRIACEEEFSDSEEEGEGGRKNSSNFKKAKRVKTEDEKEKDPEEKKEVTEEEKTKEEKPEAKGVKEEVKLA

[18] = test system: MC-38; experiment: Induction of apoptosis in mouse MC38 cells assessed as late apoptotic cells at 2 uM measured after 48 hrs by FITC/PI staining based flow cytometry (reference value: 5.07%); format: functional
[19] = target: T2, Histone deacetylase 7 (Homo sapiens, UniProt Q8WUI4); experiment: Inhibition of human recombinant HDAC7 pre-incubated with compounds for 10 mins measured followed by 60 mins of substrate addition
T2 sequence (Q8WUI4 whole entry): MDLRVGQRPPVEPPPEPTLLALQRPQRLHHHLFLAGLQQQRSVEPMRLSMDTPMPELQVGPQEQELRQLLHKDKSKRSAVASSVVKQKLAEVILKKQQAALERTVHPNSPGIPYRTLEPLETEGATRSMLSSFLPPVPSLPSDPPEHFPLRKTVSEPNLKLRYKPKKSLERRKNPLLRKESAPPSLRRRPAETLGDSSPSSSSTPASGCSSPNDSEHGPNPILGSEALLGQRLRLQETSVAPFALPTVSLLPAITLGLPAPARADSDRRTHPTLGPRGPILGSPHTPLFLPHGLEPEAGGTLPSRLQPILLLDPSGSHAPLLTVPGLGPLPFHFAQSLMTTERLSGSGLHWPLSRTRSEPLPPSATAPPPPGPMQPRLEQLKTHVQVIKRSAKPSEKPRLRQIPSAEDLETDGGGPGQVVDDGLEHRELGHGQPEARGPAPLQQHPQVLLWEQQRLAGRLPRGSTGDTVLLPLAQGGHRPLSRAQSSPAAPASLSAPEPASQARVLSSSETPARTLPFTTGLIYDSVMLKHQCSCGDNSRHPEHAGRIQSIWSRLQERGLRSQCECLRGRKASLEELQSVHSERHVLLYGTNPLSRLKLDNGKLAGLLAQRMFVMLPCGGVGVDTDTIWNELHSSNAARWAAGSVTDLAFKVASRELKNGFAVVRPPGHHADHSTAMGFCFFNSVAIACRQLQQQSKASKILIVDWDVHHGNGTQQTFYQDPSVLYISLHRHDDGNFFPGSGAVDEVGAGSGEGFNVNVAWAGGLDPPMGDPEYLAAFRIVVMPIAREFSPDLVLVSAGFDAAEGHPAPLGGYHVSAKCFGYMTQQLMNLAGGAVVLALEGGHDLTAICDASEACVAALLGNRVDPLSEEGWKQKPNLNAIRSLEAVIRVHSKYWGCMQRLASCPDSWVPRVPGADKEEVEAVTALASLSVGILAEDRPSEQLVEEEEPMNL

[20] = test system: MC-38; experiment: Induction of PD-L1 expression in mouse MC38 cells measured after 24 hrs incubation by Western blot analysis; format: functional, cell-based; conditions: dose 1-4 µM
[21] = test system: MC-38; experiment: Induction of apoptosis in mouse MC38 cells assessed as necrotic cells at 2 uM measured after 48 hrs by FITC/PI staining based flow cytometry (reference value: 0.56%); format: functional
[22] = test system: HeLa; experiment: Antiproliferative activity against human HeLa cells measured after 48 hrs incubation by MTT assay relative to control; format: functional, cell-based
[23] = test system: MC-38; experiment: Cell cycle arrest in mouse MC38 cells assessed as increase in accumulation of cells at G2/M phase measured after 48 hrs by flow cytometry; format: functional, cell-based; conditions: dose 1-8 µM

## CCCNNC(=O)c1ccc(CNC(=O)c2cnc(-c3ccc4occc4c3)[nH]2)cc1
[1]
  viability at 1 µM: 49.3%
[2]
  IC50: > 10000 nM
[3]
  Activity: 54.57%
[4]
  Activity: 60.9%
[5]
  IC50: 1030 nM
[6]
  Activity: 2.1%
[7]
  Activity: 19.83%
[8]
  IC50: 100 nM
[9]
  IC50: 1800 nM
[10]
  IC50: 53 nM
[11]
  Activity: 24.75%
[12]
  IC50: 330 nM
[13]
  Activity: inactive
[14]
  Activity: Dose-dependent-effect
[15]
  viability at 8 µM: 16.4%
[16]
  IC50: 2690 nM
[17]
  IC50: 3980 nM
[18]
  Activity: 28.73%
[19]
  IC50: > 10000 nM
[20]
  Activity: Dose-dependent-effect
[21]
  Activity: 2.15%
[22]
  IC50: 2240 nM
[23]
  Activity: Active

## CCCNNC(=O)c1ccc(CNC(=O)c2cnc(-c3cccc4ccccc34)[nH]2)cc1
[1]
  viability at 1 µM: 50.7%
[2]
  IC50: > 10000 nM
[3]
  Activity: 55.07%
[4]
  Activity: 46.63%
[5]
  IC50: 930 nM
[6]
  Activity: 0.92%
[7]
  Activity: 22.9%
[8]
  IC50: 230 nM
[9]
  IC50: 2300 nM
[10]
  IC50: 61 nM
[11]
  Activity: 43.9%
[12]
  IC50: 370 nM
[13]
  Activity: inactive
[14]
  Activity: Dose-dependent-effect
[15]
  viability at 8 µM: 22.2%
[16]
  IC50: 2470 nM
[17]
  IC50: 2030 nM
[18]
  Activity: 41.1%
[19]
  IC50: > 10000 nM
[20]
  Activity: Dose-dependent-effect
[21]
  Activity: 9.01%
[22]
  IC50: 1310 nM
[23]
  Activity: Active
